Experimental data: the CheMixHub viscosity set
± gives the uncertainty stated by the source.

Assay: xn = mol fraction of the nth substance listed

COC(C)(C)C + CO
298.15 K
Conditions	viscosity [mPa·s]
101 kPa, x1 = 0.0512	0.547 ± 0.01
101 kPa, x1 = 0.0994	0.536 ± 0.01
101 kPa, x1 = 0.1991	0.488 ± 0.009
101 kPa, x1 = 0.3011	0.455 ± 0.008
101 kPa, x1 = 0.4015	0.436 ± 0.008
101 kPa, x1 = 0.4993	0.42 ± 0.008
101 kPa, x1 = 0.6001	0.402 ± 0.008
101 kPa, x1 = 0.7001	0.387 ± 0.007
101 kPa, x1 = 0.8007	0.376 ± 0.007
101 kPa, x1 = 0.8998	0.366 ± 0.007
101 kPa, x1 = 0.9494	0.36 ± 0.007
101.33 kPa, x1 = 0.0048	0.549 ± 0.019
101.33 kPa, x1 = 0.0234	0.547 ± 0.019
101.33 kPa, x1 = 0.0483	0.544 ± 0.019
101.33 kPa, x1 = 0.0818	0.535 ± 0.019
101.33 kPa, x1 = 0.1136	0.526 ± 0.019
101.33 kPa, x1 = 0.1601	0.51 ± 0.018
101.33 kPa, x1 = 0.1987	0.496 ± 0.018
101.33 kPa, x1 = 0.2377	0.483 ± 0.018
101.33 kPa, x1 = 0.2656	0.475 ± 0.017
101.33 kPa, x1 = 0.3162	0.462 ± 0.017
101.33 kPa, x1 = 0.3736	0.446 ± 0.017
101.33 kPa, x1 = 0.4299	0.433 ± 0.016
101.33 kPa, x1 = 0.481	0.42 ± 0.016
101.33 kPa, x1 = 0.5141	0.413 ± 0.016
101.33 kPa, x1 = 0.5796	0.399 ± 0.015
101.33 kPa, x1 = 0.6163	0.394 ± 0.015
101.33 kPa, x1 = 0.7002	0.382 ± 0.015
101.33 kPa, x1 = 0.7768	0.37 ± 0.014
101.33 kPa, x1 = 0.8313	0.363 ± 0.014
101.33 kPa, x1 = 0.898	0.356 ± 0.014
101.33 kPa, x1 = 0.9429	0.346 ± 0.014

CC(O)C(=O)O (stereo not drawn) + O=C(O)[C@@H]1CCCN1
Conditions	viscosity [mPa·s]
323.15 K, 100 kPa, x1 = 0.5	997.4 ± 140

CC(F)(F)F + FCC(F)(F)F
viscosity [mPa·s], 101 kPa
Conditions	x2 = 0.247	x2 = 0.5	x2 = 0.743
298.15 K	0.126 ± 0.0029	0.1447 ± 0.0032	0.1691 ± 0.0037
313.15 K	0.105 ± 0.0024	0.1187 ± 0.0027	0.1358 ± 0.0031

CCc1ccccc1 + CC1COC(=O)O1
viscosity [mPa·s], 101 kPa
Conditions	298.15 K	308.15 K
x2 = 0.0294	0.6462 ± 0.026	0.5585 ± 0.023
x2 = 0.042	0.6512 ± 0.026	0.5634 ± 0.023
x2 = 0.0729	0.6609 ± 0.026	0.5767 ± 0.024
x2 = 0.0821	0.6655 ± 0.026	0.5811 ± 0.024
x2 = 0.1013	0.6735 ± 0.027	0.5908 ± 0.024
x2 = 0.2023	0.7164 ± 0.028	0.6552 ± 0.026
x2 = 0.3008	0.8062 ± 0.031	0.7411 ± 0.029
x2 = 0.4012	0.9344 ± 0.035	0.8533 ± 0.033
x2 = 0.5001	1.098 ± 0.041	0.9894 ± 0.037
x2 = 0.6001	1.302 ± 0.047	1.154 ± 0.042
x2 = 0.7001	1.544 ± 0.055	1.345 ± 0.049
x2 = 0.8009	1.827 ± 0.064	1.567 ± 0.056
x2 = 0.8992	2.14 ± 0.074	1.811 ± 0.064

CC(O)C(=O)O (stereo not drawn) + C[C@H](N)C(=O)O
101 kPa, x2 = 0.5
Conditions	viscosity [mPa·s]
298.15 K	23710 ± 3900
318.15 K	3481 ± 740

Clc1ccccc1 + CCCCCC
viscosity [mPa·s], 101.33 kPa
Conditions	x2 = 0.0793	x2 = 0.1624	x2 = 0.2494	x2 = 0.3407	x2 = 0.4367	x2 = 0.5377	x2 = 0.644	x2 = 0.7562	x2 = 0.8747
303.15 K	0.6623 ± 0.0066	0.6095 ± 0.0061	0.5578 ± 0.0057	0.5101 ± 0.0053	0.4658 ± 0.0049	0.4254 ± 0.0045	0.3927 ± 0.0042	0.3549 ± 0.0039	0.3227 ± 0.0036
313.15 K	0.6011 ± 0.006	0.5513 ± 0.0056	0.5124 ± 0.0053	0.4699 ± 0.0049	0.4288 ± 0.0046	0.3946 ± 0.0043	0.3647 ± 0.004	0.3305 ± 0.0037	0.3021 ± 0.0035
323.15 K	0.5314 ± 0.0054	0.4893 ± 0.0051	0.4543 ± 0.0048	0.4164 ± 0.0044	0.3835 ± 0.0042	0.3551 ± 0.0039	0.3268 ± 0.0037	0.2997 ± 0.0034	0.2745 ± 0.0032

CCCCn1cc[n+](C)c1.F[P-](F)(F)(F)(F)F + CC(C)=O
Conditions	viscosity [mPa·s]
298.15 K, 101 kPa, x2 = 0.1935	88.9 ± 21

N#CCCCCC#N + CN(C)C=O
303.15 K, 101.33 kPa
Conditions	viscosity [mPa·s]
x1 = 0.1051	0.9087 ± 0.0058
x1 = 0.2983	1.335 ± 0.0081
x1 = 0.3971	1.636 ± 0.0098
x1 = 0.4957	2.001 ± 0.012
x1 = 0.5919	2.413 ± 0.014
x1 = 0.6983	2.957 ± 0.017
x1 = 0.8486	3.821 ± 0.022

CCCCn1cc[n+](C)c1.F[P-](F)(F)(F)(F)F + ClC(Cl)Cl
Conditions	viscosity [mPa·s]
298.15 K, 101 kPa, x2 = 0.0857	195
